Laboratory results published in patent US20190045783A1, “SUBSTITUTED IMIDAZOLYLCARBOXAMIDES AS PESTICIDES” (BAYER CROPSCIENCE AKTIENGESELLSCHAFT, priority 2016, published 2019).
Where two headings read alike, the source gives them in different places.

Experiments:
[1] = log P by HPLC on reversed-phase column (C18), EEC directive 79/831 Annex V.A8; type: physicochemical; conditions: for chromatographic logP: preparation examples
[2] = system: green peach aphids (Myzus persicae); assay: Myzus persicae oral test; type: in vivo; conditions: for pest or weed control at 20 ppm: Myzus persicae, 120 h, read-out: efficacy in %
Experimental: Solvent: 100 parts by weight of acetone
Subsequently, the plates are sealed with parafilm, which a mixed population of green peach aphids (Myzus persicae) within a second microtitre plate is able to puncture and imbibe the solution through it.
After 5 days, the efficacy in % is determined. 100% means that all the aphids have been killed; 0% means that no aphids have been killed.

[3] = system: green peach aphid (Myzus persicae); assay: Myzus persicae spray test (Chinese cabbage leaf discs); type: in vivo; conditions: for pest or weed control at 500 g/ha: Myzus persicae, foliar, read-out: efficacy in %
Experimental: Myzus persicae—Spray Test
To produce a suitable active ingredient formulation, 1 part by weight of active ingredient is dissolved with the stated parts by weight of solvent and made up with water containing an emulsifier concentration of 1000 ppm until the desired concentration is attained. To produce further test concentrations, the formulation is diluted with emulsifier-containing water.
After 5-6 days, the efficacy in % is determined. 100% means that all the aphids have been killed; 0% means that no aphids have been killed.

[4] = application rate 20 ppm, after 5 days, oral, 100% = all aphids killed
[5] = application rate 500 g/ha, after 5-6 days, Chinese cabbage leaf discs, 100% = all aphids killed
[6] = neutral range, pH 7.8, HPLC C18, 43° C., Table 1
[7] = reversed-phase HPLC column (C18), neutral range, pH 7.8, HPLC C18, 43° C., read-out: log P[n]

| logP [n] ([1]; pH 7.8) | Structure (SMILES) | efficacy in % [2, 4] [%] | efficacy in % [3, 5] [%] | other results |
| --- | --- | --- | --- | --- |
| 1.41 | CCO/N=C/c1ncc(C(=O)N(C)c2cccnc2)n1C [I-1-004] | 100 | 90 | – |
| 1.26 | CN(C(=O)c1cnc(/C=N/OCc2ccccn2)n1C)c1cccnc1 [I-1-013] | 100 | 100 | – |
| 1.22 | CCOC(=O)CNC(=O)c1ncc(C(=O)N(C)c2cccnc2)n1C [I-1-075] | 100 | 90 | – |
| 0.87 | CCN(C)C(=O)c1ncc(C(=O)N(C)c2cccnc2)n1C [I-1-053] | 100 | 90 | – |
| – | CCN(CC)C(=O)c1ncc(C(=O)N(C)c2cccnc2)n1C [I-1-058] | 100 | 100 | logP [n] [1, 6]: 1.11 |
| 2.14 | CN(C(=O)c1cnc(/C=N/OC2CCCC2)n1C)c1cccnc1 [I-1-052] | 100 | 100 | – |
| 1.57 | CC(C)CNC(=O)c1ncc(C(=O)N(C)c2cccnc2)n1C [I-1-065] | 100 | 100 | – |
| – | CN(C(=O)c1cnc(C=O)n1C)c1cccnc1 [I-1-007, 2-Formyl-N,1-dimethyl-N-(pyridin-3-yl)-1H-imidazole-5-carboxamide] | – | – | chromatographic logP [1, 7]: 0.59; pest or weed control at 20 ppm ([2]; po): 100%; pest or weed control at 500 g/ha [3]: 100% |
| 0.72 | CN(C(=O)c1cnc(C(=O)NS(=O)(=O)C2CC2)n1C)c1cccnc1 [I-1-088] | – | – | – |
| 1.11 | CCN(C)C(=O)c1ncc(C(=O)N(c2cccnc2)C2CC2)n1C [I-1-087] | – | – | – |
| – | CCNC(=O)c1ncc(C(=O)N(C)c2cccnc2)n1C [I-1-046, N^2-Ethyl-N^5,1-dimethyl-N^5-(pyridin-3-yl)-1H-imidazole-2,5-dicarboxamide] | – | – | chromatographic logP ([1]; reversed-phase HPLC column (C18), acidic range, pH 2.7, HPLC C18, 43° C., read-out: log P[a]): 0.8; chromatographic logP [1, 7]: 0.97; pest or weed control at 20 ppm [2, 4]: 100%; pest or weed control at 500 g/ha [3, 5]: 100% |
| 1.64 | CCNC(=S)c1ncc(C(=O)N(C)c2cccnc2)n1C [I-1-057] | 100 | 90 | log P[a] ([1]; pH 2.7): 1.21; log P[n] ([1]; pH 7.8): 1.42 |
| 0.97 | CN(C(=O)c1cnc(C2OCCS2)n1C)c1cccnc1 (centres unmarked) [I-1-021] | 100 | 100 | – |
| 1.62 | CN(C(=O)c1cnc(C(=O)NC(C)(C)C)n1C)c1cccnc1 [I-1-030] | 100 | 90 | – |
| 1.32 | CN(C(=O)c1cnc(C(=O)C2CC2)n1C)c1cccnc1 [I-1-084] | 100 | 90 | – |
| 1.39 | CN(C(=O)c1cnc(C(=O)NCC2CC2)n1C)c1cccnc1 [I-1-063] | 100 | – | – |
| 1.39 | CN(C(=O)c1cnc(C(=O)NC(CO)c2ccccc2)n1C)c1cccnc1 (centres unmarked) [I-1-079] | 90 | 90 | – |
| 2.22 | CN(C(=O)c1cnc(/C=N/OCC(C)(C)C)n1C)c1cccnc1 [I-1-036] | 100 | 100 | – |
| 1.1 | CO/N=C/c1ncc(C(=O)N(C)c2cccnc2)n1C [I-1-001] | 100 | 90 | – |
| 1.83 | C#CCO/N=C/c1ncc(C(=O)N(C)c2cccnc2)n1C [I-1-035] | 100 | 100 | – |
| 2.06 | CCCCN(/N=C/c1ncc(C(=O)N(C)c2cccnc2)n1C)C(=O)OCC [I-1-029] | 100 | 90 | – |
| 1.06 | CCOC(=O)N/N=C/c1ncc(C(=O)N(C)c2cccnc2)n1C [I-1-017] | 100 | 100 | – |
| 1.81 | CCN(C(=O)c1cnc(/C=N/OC(C)C)n1C)c1cccnc1 [I-1-041] | 100 | 90 | – |
| 1.26 | CC(C)NC(=O)c1ncc(C(=O)N(C)c2cccnc2)n1C [I-1-032] | 100 | 100 | – |

| logP [n] ([1]; pH 7.8) | Structure (SMILES) | efficacy in % [2, 4] [%] | efficacy in % [3, 5] [%] | other results |
| --- | --- | --- | --- | --- |
| 1.66 | CCO/N=C/c1ncc(C(=O)N(CC)c2cccnc2)n1C [I-1-051] | 100 | 100 | – |
| 1.74 | CCCO/N=C/c1ncc(C(=O)N(C)c2cccnc2)n1C [I-1-023] | 100 | 100 | – |
| 1.12 | CCN(C)C(=O)c1ncc(C(=O)N(CC)c2cccnc2)n1C [I-1-068] | 90 | 100 | – |
| 0.45 | CN(C(=O)c1cnc(C(=O)NCCO)n1C)c1cccnc1 [I-1-089] | – | – | – |
| 1.63 | CN(C(=O)c1cnc(/C=N/NC(=O)OCc2ccccc2)n1C)c1cccnc1 [I-1-028] | 100 | 90 | – |
| 0.93 | COC(=O)CNC(=O)c1ncc(C(=O)N(C)c2cccnc2)n1C [I-1-077] | 90 | – | – |
| 1.13 | CN(C(=O)c1cnc(C2OCCCS2)n1C)c1cccnc1 (centres unmarked) [I-1-022] | 100 | 100 | – |
| 1.24 | CCNC(=O)c1ncc(C(=O)N(CC)c2cccnc2)n1C [I-1-066] | 100 | 100 | – |
| 2.08 | CCCCO/N=C/c1ncc(C(=O)N(C)c2cccnc2)n1C [I-1-027] | 100 | 100 | – |
| – | CCN(C(=O)c1cnc(C(=O)N(C)C)n1C)c1cccnc1 [I-1-072] | 100 | 100 | logP [n] [1, 6]: 0.88 |
| 1.48 | CN(C(=O)c1cnc(C2COC(C)(C)OC2)n1C)c1cccnc1 [I-1-016, 2-(2,2-Dimethyl-1,3-dioxan-5-yl)-N,1-dimethyl-N-(pyridin-3-yl)-1H-imidazole-5-carboxamide] | 100 | 100 | log P[n] ([1]; pH 7.8): 1.48 |
| – | COC(=O)N(C)/N=C/c1ncc(C(=O)N(C)c2cccnc2)n1C [I-1-018, Methyl (2E)-1-methyl-2-({1-methyl-5-[methyl(pyridin-3-yl)carbamoyl]-1H-imidazol-2-yl}methylene)hydrazinecarboxylate] | – | – | chromatographic logP ([1]; neutral range, pH 7.8, HPLC C18, 43° C., read-out: log P[n]): 1.08; pest or weed control at 20 ppm [2, 4]: 100%; pest or weed control at 500 g/ha [3, 5]: 100% |
| 1.23 | CC1OC(c2ncc(C(=O)N(C)c3cccnc3)n2C)OC1C (centres unmarked) [I-1-020] | 100 | 100 | – |
| 1.55 | CN(C(=O)c1cnc(C(=O)C(C)(C)C#N)n1C)c1cccnc1 [I-1-067] | 100 | 100 | – |
| – | CON(C)C(=O)c1ncc(C(=O)N(C)c2cccnc2)n1C [I-1-069, N^2-Methoxy-N^2,N^5,1-trimethyl-N^5-(pyridin-3-yl)-1H-imidazole-2,5-dicarboxamide] | – | – | chromatographic logP [1, 7]: 0.72; pest or weed control at 20 ppm [2, 4]: 100%; pest or weed control at 500 g/ha [3, 5]: 100% |
| 1.42 | CN(C(=O)c1cnc(C(=O)NCC(F)(F)F)n1C)c1cccnc1 [I-1-048] | 100 | 100 | – |
| 0.89 | CN(C(=O)c1cnc(C(=O)N2CCC2)n1C)c1cccnc1 [I-1-071] | 100 | 90 | – |
| 0.67 | CCONC(=O)c1ncc(C(=O)N(C)c2cccnc2)n1C [I-1-078] | – | 90 | – |
| 2.07 | CC(C)CO/N=C/c1ncc(C(=O)N(C)c2cccnc2)n1C [I-1-034] | 100 | 90 | – |
| – | CN(C(=O)c1cncn1C)c1cccnc1 [N,1-Dimethyl-N-(pyridin-3-yl)-1H-imidazole-5-carboxamide] | – | – | chromatographic logP [1, 7]: 0.44 |
| 1.11 | CN(C(=O)c1cnc(C(=O)N(C)S(C)(=O)=O)n1C)c1cccnc1 [I-1-081] | 100 | 90 | – |
| 1.29 | CN(C(=O)c1cnc(C2OCC3(CC3)CO2)n1C)c1cccnc1 [I-1-015] | 100 | 90 | – |
| – | CC(C)C(=O)c1ncc(C(=O)N(C)c2cccnc2)n1C [I-1-082, 2-Isobutyryl-N,1-dimethyl-N-(pyridin-3-yl)-1H-imidazole-5-carboxamide] | – | – | chromatographic logP [1, 7]: 1.55; pest or weed control at 500 g/ha [3, 5]: 100% |

| Structure (SMILES) | logP [n] ([1]; pH 7.8) | efficacy in % [2, 4] [%] | efficacy in % [3, 5] [%] | other results |
| --- | --- | --- | --- | --- |
| CCC(=O)c1ncc(C(=O)N(C)c2cccnc2)n1C [I-1-086] | 1.23 | – | 90 | – |
| CCN(C(=O)c1cnc(C2OCCO2)n1C)c1cccnc1 [I-1-003] | 0.98 | 100 | 90 | – |
| CNC(=O)c1ncc(C(=O)N(C)c2cccnc2)n1C [I-1-061] | 0.7 | 100 | – | – |
